Source: ChEMBL document CHEMBL5291721, “A preclinical secondary pharmacology resource illuminates target-adverse drug reaction associations of marketed drugs” (Nat Commun, 2023)

Columns and labels:
Thromboxane A2 receptor [1] = biological target: T1, Thromboxane A2 receptor (Homo sapiens, UniProt P21731); format: functional, cell-based
T1 sequence (P21731 whole entry): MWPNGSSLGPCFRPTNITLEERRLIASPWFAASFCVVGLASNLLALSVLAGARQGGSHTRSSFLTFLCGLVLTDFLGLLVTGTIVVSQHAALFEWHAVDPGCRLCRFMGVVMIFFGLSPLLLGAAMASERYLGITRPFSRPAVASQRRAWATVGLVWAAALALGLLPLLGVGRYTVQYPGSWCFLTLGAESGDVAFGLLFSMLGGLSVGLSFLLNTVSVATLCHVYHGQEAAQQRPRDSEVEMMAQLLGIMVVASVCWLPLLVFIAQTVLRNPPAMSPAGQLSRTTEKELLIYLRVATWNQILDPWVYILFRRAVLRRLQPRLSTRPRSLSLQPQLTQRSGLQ

Thromboxane A2 receptor [2] = biological target: T1, Thromboxane A2 receptor; format: functional, cell-based; remark: listed apart in the source
[3] = biological target: Sodium-dependent serotonin transporter (Homo sapiens, UniProt P31645)
Sodium-dependent serotonin transporter, sequence (P31645 whole entry): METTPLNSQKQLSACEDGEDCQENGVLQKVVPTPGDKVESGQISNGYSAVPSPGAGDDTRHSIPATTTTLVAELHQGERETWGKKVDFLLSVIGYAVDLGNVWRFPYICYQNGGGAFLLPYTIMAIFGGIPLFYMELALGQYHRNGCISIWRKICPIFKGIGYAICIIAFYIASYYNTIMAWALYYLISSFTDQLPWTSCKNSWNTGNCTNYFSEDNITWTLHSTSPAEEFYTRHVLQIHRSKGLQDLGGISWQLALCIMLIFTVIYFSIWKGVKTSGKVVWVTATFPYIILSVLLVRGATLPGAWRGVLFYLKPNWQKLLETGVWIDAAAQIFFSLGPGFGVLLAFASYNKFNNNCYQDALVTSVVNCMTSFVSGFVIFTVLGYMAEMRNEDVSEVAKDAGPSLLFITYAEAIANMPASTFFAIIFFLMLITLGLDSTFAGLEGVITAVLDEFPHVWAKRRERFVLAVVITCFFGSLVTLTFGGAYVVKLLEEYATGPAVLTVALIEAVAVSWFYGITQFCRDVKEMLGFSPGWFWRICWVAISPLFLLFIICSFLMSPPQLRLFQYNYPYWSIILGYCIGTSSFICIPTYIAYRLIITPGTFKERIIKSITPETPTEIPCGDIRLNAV

[4] = biological target: Voltage-gated inwardly rectifying potassium channel KCNH2 (Homo sapiens, UniProt Q12809); format: functional; conditions: read-out: AC50
Voltage-gated inwardly rectifying potassium channel KCNH2, sequence (Q12809 whole entry): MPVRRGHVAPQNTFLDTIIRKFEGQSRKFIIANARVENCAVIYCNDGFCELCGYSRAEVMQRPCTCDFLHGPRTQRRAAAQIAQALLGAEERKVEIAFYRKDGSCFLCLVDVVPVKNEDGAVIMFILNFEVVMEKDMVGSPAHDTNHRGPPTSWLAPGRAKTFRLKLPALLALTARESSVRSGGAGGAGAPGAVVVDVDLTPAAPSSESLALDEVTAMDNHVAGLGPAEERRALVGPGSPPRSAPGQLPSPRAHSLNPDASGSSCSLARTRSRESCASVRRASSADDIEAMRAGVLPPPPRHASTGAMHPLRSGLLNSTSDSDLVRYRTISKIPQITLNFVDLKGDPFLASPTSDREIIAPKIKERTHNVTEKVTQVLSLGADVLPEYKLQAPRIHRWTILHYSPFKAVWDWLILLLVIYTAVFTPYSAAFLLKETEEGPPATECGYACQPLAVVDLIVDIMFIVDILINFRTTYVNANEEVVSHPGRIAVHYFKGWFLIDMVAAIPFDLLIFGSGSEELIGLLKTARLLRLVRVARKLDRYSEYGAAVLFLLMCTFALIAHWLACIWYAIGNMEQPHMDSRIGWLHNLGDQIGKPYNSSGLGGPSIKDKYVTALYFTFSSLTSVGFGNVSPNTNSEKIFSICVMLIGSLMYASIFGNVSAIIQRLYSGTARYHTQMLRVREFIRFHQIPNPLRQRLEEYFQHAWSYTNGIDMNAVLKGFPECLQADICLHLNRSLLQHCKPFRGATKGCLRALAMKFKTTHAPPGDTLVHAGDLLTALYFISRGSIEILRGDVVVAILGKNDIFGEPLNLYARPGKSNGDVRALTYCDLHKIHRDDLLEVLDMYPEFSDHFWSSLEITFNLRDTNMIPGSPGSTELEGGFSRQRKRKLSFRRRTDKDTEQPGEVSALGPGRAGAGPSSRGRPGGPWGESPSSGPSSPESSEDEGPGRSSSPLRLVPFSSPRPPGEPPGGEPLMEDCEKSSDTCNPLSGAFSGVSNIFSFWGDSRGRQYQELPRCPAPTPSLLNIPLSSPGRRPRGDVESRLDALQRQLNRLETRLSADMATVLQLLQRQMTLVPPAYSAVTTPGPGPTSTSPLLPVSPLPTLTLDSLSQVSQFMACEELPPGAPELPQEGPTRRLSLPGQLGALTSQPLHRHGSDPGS

[5] = biological target: Prostaglandin G/H synthase 1 (Homo sapiens, UniProt P23219); format: functional
Prostaglandin G/H synthase 1, sequence (P23219 whole entry): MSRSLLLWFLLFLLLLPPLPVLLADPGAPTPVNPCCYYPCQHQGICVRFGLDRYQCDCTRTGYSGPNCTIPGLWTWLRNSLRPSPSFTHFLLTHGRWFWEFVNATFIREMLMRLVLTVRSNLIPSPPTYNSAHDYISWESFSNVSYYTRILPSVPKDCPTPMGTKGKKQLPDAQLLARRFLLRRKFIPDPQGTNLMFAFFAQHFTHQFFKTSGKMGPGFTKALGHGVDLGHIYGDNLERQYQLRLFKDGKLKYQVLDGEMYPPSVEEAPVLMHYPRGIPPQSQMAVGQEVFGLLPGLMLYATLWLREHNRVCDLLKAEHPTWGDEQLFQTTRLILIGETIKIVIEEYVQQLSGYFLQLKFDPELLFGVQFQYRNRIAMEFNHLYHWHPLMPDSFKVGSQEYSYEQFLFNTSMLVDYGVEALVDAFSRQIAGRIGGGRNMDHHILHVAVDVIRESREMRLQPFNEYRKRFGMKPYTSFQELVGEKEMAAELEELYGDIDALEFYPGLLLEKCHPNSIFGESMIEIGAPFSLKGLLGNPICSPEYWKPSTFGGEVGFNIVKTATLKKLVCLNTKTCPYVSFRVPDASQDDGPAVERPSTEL

Acetylcholinesterase = Acetylcholinesterase (Homo sapiens, UniProt P22303); format: functional
[6] = biological target: T2, Alpha-1A adrenergic receptor (Homo sapiens, UniProt P35348); format: functional, cell-based
T2 sequence (P35348 whole entry): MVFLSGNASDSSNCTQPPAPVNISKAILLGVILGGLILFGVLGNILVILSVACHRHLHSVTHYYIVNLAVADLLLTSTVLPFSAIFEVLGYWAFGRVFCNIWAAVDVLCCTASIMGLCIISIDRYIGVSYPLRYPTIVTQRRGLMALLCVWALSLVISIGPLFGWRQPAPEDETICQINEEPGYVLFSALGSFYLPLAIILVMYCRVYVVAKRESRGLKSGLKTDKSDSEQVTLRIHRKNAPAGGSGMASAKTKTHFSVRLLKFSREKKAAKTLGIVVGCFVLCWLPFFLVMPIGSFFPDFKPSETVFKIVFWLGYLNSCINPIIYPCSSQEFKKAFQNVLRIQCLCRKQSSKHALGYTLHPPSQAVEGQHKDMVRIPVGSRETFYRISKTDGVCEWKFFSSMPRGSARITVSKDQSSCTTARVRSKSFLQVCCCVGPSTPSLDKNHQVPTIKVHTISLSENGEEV

Mu-type opioid receptor = Mu-type opioid receptor (Homo sapiens, UniProt P35372)
Mu-type opioid receptor, sequence (P35372 whole entry): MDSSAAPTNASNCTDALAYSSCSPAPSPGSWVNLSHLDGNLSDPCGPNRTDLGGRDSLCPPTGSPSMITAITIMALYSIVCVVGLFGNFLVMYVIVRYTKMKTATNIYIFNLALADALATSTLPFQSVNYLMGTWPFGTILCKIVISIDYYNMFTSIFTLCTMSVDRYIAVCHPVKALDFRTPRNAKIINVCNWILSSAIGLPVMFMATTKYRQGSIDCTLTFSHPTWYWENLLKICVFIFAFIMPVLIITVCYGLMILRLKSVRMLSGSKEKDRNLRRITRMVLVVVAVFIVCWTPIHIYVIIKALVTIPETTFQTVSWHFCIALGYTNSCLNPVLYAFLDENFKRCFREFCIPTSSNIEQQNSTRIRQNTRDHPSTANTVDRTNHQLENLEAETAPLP

[7] = biological target: Sodium-dependent dopamine transporter (Homo sapiens, UniProt Q01959)
Sodium-dependent dopamine transporter, sequence (Q01959 whole entry): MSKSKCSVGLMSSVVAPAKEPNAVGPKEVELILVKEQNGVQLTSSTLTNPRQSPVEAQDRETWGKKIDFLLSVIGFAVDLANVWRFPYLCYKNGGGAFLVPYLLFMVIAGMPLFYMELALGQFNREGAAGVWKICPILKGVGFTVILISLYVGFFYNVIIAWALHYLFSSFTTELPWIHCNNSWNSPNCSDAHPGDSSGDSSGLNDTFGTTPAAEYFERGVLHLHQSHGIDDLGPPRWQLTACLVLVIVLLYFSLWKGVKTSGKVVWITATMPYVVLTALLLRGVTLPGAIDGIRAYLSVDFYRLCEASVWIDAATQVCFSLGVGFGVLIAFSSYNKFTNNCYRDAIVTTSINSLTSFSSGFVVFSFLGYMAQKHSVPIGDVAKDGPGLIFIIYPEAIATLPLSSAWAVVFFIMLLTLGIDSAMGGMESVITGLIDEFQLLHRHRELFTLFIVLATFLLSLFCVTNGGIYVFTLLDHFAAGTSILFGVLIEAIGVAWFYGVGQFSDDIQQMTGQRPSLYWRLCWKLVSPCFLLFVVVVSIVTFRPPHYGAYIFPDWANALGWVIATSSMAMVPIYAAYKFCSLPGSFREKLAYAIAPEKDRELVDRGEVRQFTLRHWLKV

[8] = biological target: Sodium-dependent noradrenaline transporter (Homo sapiens, UniProt P23975)
[9] = biological target: T2, Alpha-1A adrenergic receptor; format: functional, cell-based; remark: listed apart in the source
D(3) dopamine receptor = D(3) dopamine receptor (Homo sapiens, UniProt P35462)
D(3) dopamine receptor, sequence (P35462 whole entry): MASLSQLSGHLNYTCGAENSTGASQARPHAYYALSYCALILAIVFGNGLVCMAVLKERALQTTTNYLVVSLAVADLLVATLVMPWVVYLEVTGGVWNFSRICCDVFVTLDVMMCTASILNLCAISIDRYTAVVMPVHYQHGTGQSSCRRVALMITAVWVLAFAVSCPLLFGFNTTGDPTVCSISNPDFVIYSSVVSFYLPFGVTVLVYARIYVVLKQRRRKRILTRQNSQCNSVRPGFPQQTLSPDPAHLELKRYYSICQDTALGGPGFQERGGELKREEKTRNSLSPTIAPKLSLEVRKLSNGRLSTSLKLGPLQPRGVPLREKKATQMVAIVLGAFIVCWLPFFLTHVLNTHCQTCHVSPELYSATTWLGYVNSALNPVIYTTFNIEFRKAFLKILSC

D(1A) dopamine receptor = D(1A) dopamine receptor (Homo sapiens, UniProt P21728)
D(1A) dopamine receptor, sequence (P21728 whole entry): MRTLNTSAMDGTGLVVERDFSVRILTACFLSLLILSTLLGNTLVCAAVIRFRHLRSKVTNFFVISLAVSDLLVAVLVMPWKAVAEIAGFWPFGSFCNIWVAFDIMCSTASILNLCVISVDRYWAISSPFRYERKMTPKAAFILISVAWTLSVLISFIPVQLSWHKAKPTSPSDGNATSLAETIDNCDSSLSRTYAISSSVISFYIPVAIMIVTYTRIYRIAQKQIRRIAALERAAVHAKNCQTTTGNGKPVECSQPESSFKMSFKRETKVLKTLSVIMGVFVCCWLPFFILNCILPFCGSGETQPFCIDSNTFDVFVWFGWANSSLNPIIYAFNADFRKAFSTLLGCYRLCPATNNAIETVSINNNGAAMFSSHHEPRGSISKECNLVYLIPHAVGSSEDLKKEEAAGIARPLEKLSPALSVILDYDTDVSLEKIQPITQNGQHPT

[10] = biological target: T3, Amine oxidase [flavin-containing] A (Homo sapiens, UniProt P21397); format: functional
T3 sequence (P21397 whole entry): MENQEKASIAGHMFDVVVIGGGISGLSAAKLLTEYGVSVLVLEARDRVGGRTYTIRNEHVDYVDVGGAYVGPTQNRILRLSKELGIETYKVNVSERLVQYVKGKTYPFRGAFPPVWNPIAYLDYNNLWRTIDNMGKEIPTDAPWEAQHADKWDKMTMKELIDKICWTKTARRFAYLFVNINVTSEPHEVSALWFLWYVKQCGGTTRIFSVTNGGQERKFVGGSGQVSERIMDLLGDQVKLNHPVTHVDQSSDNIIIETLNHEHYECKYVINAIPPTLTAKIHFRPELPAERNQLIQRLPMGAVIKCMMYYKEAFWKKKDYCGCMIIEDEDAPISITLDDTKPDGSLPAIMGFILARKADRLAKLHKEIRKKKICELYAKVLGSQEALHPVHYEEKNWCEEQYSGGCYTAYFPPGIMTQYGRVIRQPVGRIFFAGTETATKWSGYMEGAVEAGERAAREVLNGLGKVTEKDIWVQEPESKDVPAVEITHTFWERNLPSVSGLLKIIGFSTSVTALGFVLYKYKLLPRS

[11] = biological target: Gamma-aminobutyric acid receptor subunit alpha-1 (Rattus norvegicus, UniProt P62813)
Gamma-aminobutyric acid receptor subunit alpha-1, sequence (P62813 whole entry): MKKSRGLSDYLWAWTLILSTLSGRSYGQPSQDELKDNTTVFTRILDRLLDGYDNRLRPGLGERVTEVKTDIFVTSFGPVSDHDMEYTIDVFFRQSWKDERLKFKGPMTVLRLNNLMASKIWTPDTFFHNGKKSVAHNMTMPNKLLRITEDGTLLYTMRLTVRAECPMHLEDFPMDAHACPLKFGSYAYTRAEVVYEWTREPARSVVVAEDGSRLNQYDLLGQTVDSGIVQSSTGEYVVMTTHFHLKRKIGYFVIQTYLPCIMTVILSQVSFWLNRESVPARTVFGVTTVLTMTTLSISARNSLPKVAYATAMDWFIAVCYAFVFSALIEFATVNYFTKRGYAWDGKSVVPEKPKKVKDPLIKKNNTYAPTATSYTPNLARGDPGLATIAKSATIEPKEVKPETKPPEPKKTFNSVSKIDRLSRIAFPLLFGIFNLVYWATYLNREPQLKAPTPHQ

Estrogen receptor = biological target: T4, Estrogen receptor (Homo sapiens, UniProt P03372)
T4 sequence (P03372 whole entry): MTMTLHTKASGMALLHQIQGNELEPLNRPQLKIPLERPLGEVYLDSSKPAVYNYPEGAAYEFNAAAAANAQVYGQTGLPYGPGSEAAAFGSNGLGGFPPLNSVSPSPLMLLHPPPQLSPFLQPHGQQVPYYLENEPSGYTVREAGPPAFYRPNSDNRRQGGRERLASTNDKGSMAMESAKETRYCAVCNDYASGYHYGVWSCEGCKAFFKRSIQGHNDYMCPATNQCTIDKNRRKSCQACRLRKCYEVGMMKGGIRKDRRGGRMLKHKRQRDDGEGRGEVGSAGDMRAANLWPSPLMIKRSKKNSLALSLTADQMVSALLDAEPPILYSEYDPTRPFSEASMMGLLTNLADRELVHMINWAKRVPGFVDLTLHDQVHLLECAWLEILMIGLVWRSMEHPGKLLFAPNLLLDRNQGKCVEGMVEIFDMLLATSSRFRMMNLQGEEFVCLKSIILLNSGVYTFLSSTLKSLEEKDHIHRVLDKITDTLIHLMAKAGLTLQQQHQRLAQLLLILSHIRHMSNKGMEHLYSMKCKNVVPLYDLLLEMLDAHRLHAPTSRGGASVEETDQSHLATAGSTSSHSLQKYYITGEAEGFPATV
Further: assay procedure not described here.

SMILES | AC50 (Thromboxane A2 receptor [1]) [µM] | AC50 (Thromboxane A2 receptor [2]) [µM] | AC50 [3] [µM] | AC50 [4] [µM] | AC50 [5] [µM] | AC50 (Acetylcholinesterase) [µM] | AC50 [6] [µM] | AC50 (Mu-type opioid receptor) [µM] | AC50 [7] [µM] | AC50 [8] [µM] | AC50 [9] [µM] | AC50 (D(3) dopamine receptor) [µM] | AC50 (D(1A) dopamine receptor) [µM] | AC50 [10] [µM] | AC50 [11] [µM] | AC50 (Estrogen receptor) [µM]
C1N2CN3CN1CN(C2)C3 [METHENAMINE] | > 30 | > 30 | > 30 | > 30 | > 30 | > 30 | > 30 | > 30 | > 30 | > 30 | > 30 | > 30 | > 30 | > 30 | > 30 | –
CC1=NN(c2ccccc2)C(=O)C1 [EDARAVONE] | > 30 | > 30 | – | > 30 | > 30 | > 30 | > 30 | > 30 | > 30 | > 30 | > 30 | 10.9 | > 30 | > 30 | > 30 | > 30
CCC1(c2cccc(O)c2)CCCCN(C)C1 (stereo unspecified) [MEPTAZINOL] | > 30 | > 30 | 13.5 | > 30 | > 30 | 5.51 | > 30 | – | > 30 | > 30 | > 30 | > 30 | > 30 | > 30 | > 30 | –
Cn1cc[nH]c1=S [METHIMAZOLE] | > 30 | > 30 | – | – | 0.541 | > 30 | > 30 | > 30 | > 30 | > 30 | > 30 | > 30 | > 30 | > 30 | > 30 | > 30
NS(=O)(=O)c1cc2c(cc1Cl)NC(CC1CCCC1)NS2(=O)=O (stereo unspecified) [CYCLOPENTHIAZIDE] | > 30 | > 30 | > 30 | > 30 | > 30 | > 30 | – | > 30 | > 30 | > 30 | – | > 30 | > 30 | > 30 | > 30 | –
O=C(O)c1cccc(-c2noc(-c3ccccc3F)n2)c1 | > 30 | > 30 | > 30 | > 30 | > 30 | > 30 | > 30 | > 30 | > 30 | > 30 | > 30 | > 30 | > 30 | > 30 | > 30 | –
CCCCN(CCCC)CCCOC(=O)c1ccc(N)cc1 [BUTACAINE] | > 30 | > 30 | > 30 | 5.4 | > 30 | > 30 | > 30 | > 30 | 2 | > 30 | > 30 | 5.52 | > 30 | > 30 | > 30 | –
CO[C@@]12[C@H](COC(N)=O)C3=C(C(=O)C(C)=C(N)C3=O)N1C[C@@H]1N[C@@H]12 [MITOMYCIN] | > 30 | > 30 | – | – | > 30 | > 30 | > 30 | > 30 | > 30 | > 30 | > 30 | > 30 | > 30 | > 30 | > 30 | –
COc1ccc(-c2cc(=O)c3c(O)cc(O[C@@H]4O[C@H](CO[C@@H]5O[C@@H](C)[C@H](O)[C@@H](O)[C@H]5O)[C@@H](O)[C@H](O)[C@H]4O)cc3o2)cc1O [DIOSMIN] | > 30 | > 30 | > 30 | > 30 | > 30 | > 30 | > 30 | > 30 | > 30 | > 30 | > 30 | > 30 | > 30 | > 30 | – | > 30
CO/N=C(\C(=O)N[C@@H]1C(=O)N2C(C(=O)OCOC(=O)C(C)(C)C)=C(C)CS[C@H]12)c1csc(N)n1 | > 30 | > 30 | > 30 | > 30 | 23.2 | > 30 | – | > 30 | > 30 | > 30 | – | > 30 | > 30 | > 30 | > 30 | –
Cc1c(O)cccc1C(=O)N[C@@H](CSc1ccccc1)[C@H](O)CN1C[C@H]2CCCC[C@H]2C[C@H]1C(=O)NC(C)(C)C | 13.2 | > 30 | – | > 30 | > 30 | > 30 | > 30 | 15.3 | 23.1 | 18.2 | > 30 | > 30 | – | > 30 | > 30 | –
CC(=O)O[C@]1(C(C)=O)CC[C@H]2[C@@H]3C[C@H](C)C4=CC(=O)CC[C@]4(C)[C@H]3CC[C@@]21C [MEDROXYPROGESTERONE ACETATE] | > 30 | > 30 | – | > 30 | > 10 | > 30 | > 30 | > 30 | > 30 | > 30 | > 30 | > 30 | > 30 | > 30 | 13.4 | –
CC(C)=CCC1C(=O)N(c2ccccc2)N(c2ccccc2)C1=O [FEPRAZONE] | > 30 | > 30 | > 30 | – | 0.26 | > 30 | – | > 30 | > 30 | > 30 | – | > 30 | > 30 | > 30 | > 30 | > 30
O=C1CCC(N2C(=O)c3ccccc3C2=O)C(=O)N1 (stereo unspecified) [THALIDOMIDE] | > 30 | > 30 | – | > 30 | > 30 | > 30 | > 30 | 0.202 | > 30 | > 30 | > 30 | > 30 | > 30 | > 30 | > 30 | –
